Data on two compounds can be found in patent publication US9732101B2, “Bioreversible boronates for delivery of molecules into cells” (WISCONSIN ALUMNI RESEARCH FOUNDATION, priority 2012, dated 2017).

Where two headings read alike, the source gives them in different places.

Data set [1] can be described thus: Ka of boronic acids for saccharides by 1H NMR (H2O containing 2% D2O). The data set is classed as binding. The following applies: 1H NMR in H2O containing D2O (2% v/v), 0.10M sodium phosphate buffer, pH 7.4, this work. Here is the method: (§1) Methodology to determine the values of Ka for boronic acids and saccharides was adapted from work by Hall and coworkers. [13a, 13b]
(§2) A boronic acid (B) and a saccharide (S) were assumed to bind in one modality, B·S:
(§3) The [B·S]/[B] ratio was determined by the integration of aryl protons of the boronic acid.saccharide complex and the free boronic acid. The individual [B], [B·S], and [S] can be calculated from eq. 1-3.
(§4) Each value of Ka arose from at least two independent experiments with freshly prepared solutions, and each experiment consisted of a titration with 6-9 different concentrations.
All NMR spectra were analyzed with Topspin 3.0 software from Bruker AXS. NMR experiments were done in a 0.10 M NaH2PO4 buffer, pH 7.4, containing D2O (2% v/v). ^1H NMR experiments consisted of the first increment of a 2D NOSY with gradients for improved water suppression.
A. Representative Procedure for Making a Phenylboronic Acid Solution NaH2PO4 (3.0 g, 25 mmol) and PBA (phenylboronic acid, 458 mg, 3.75 mmol) were dissolved in distilled, deionized water in a volumetric flask (˜200 mL H2O, 5 mL D2O). The pH was adjusted carefully to 7.4 using 10 M NaOH, and additional water was added for a final volume of 250 mL. Final solutions were 15 mM in the boronic acid (PBA=solution 1; benzoboroxole=solution 2) in 0.10 M sodium phosphate monobasic buffer, pH 7.4, containing D2O (2% v/v).
To a 25-mL volumetric flask, D-fructose (674 mg, 3.75 mmol) and ˜20 mL of solution 1 was added. The solution was adjusted carefully to pH 7.4 by the addition of 10 M NaOH. (The volume of added NaOH was used in the calculation of the boronic acid concentration.) The volume was then increased to 25 mL by adding solution 1. […] The [B·S]/[B] ratio was determined for every concentration as follows. […]
To a 25-mL volumetric flask, D-fructose (674 mg, 3.75 mmol) and ˜20 mL of solution 2 was added. […] The [B·S]/[B] ratio was determined as depicted in FIG. 14. A value for Ka was calculated for every concentration as described above.

The conditions of data set [2]: 1H NMR in D2O (100% v/v); 0.10M sodium phosphate buffer, pH 7.4; ref [c]; cited from earlier work.
For data set [3] the following is noted: Competition with alizarin red S; 0.10M sodium phosphate buffer, pH 7.4; refs [b], [e]; cited from earlier work.
For data set [4] the following is noted: ref 13b; cited from earlier work.
The nature of data set [5]: Ka of boronic acids for saccharides by 1H NMR (H2O containing 2% D2O). The data set is classed as binding. The following applies: 1H NMR in H2O containing D2O (2% v/v); 0.10M sodium phosphate buffer, pH 7.4; this work. Here is the method: as §1, §2, §3, §4
(§5) All NMR spectra were analyzed with Topspin 3.0 software from Bruker AXS. NMR experiments were done in a 0.10 M NaH2PO4 buffer, pH 7.4, containing D2O (2% v/v). ^1H NMR experiments consisted of the first increment of a 2D NOSY with gradients for improved water suppression. […]
To a 25-mL volumetric flask, D-glucose (2.25 g, 12.5 mmol) and ˜20 mL of solution 1 was added. […] The [B·S]/[B] ratio was determined as depicted in FIG. 15. A value for Ka was calculated for every concentration as described above.
To a 25-mL volumetric flask, D-glucose (2.25 g, 12.5 mmol) and ˜20 mL of solution 2 was added. […] The [B·S]/[B] ratio was determined as depicted in FIG. 16. […] A value for Ka was calculated for every concentration as described above.

For data set [6] the following is noted: 1H NMR in D2O (100% v/v); 0.10M sodium phosphate buffer, pH 7.4; ref [c]; cited from earlier work. The source holds these as a separate data set.
Data set [7] in a line: Ka of boronic acids for saccharides by 1H NMR (H2O containing 2% D2O). Type of data set: binding. The following applies: 1H NMR in H2O containing D2O (2% v/v); 0.10M sodium phosphate buffer, pH 7.4; this work. As for the experimental part:
as §1, §2, §3, §4, §5
To a […] volumetric flask, Neu5Ac (1.53 g, 5.0 mmol) and ˜20 mL of solution 1 was added. […] The [B·S]/[B] ratio was determined as depicted in FIG. 17. A value for Ka was calculated for every concentration as described above.
To a […] volumetric flask, Neu5Ac (1.56 g, […]) and ˜20 mL of solution 2 was added. […] The Ka value was calculated for every concentration as previously described. The [B·S]/[B] ratio was determined as illustrated in FIGS. 18 and 19. […] A value for Ka was calculated for every concentration as described above.
This is another data set of the same source.

The conditions of data set [8]: Competition with alizarin red S; 0.10M sodium phosphate buffer, pH 7.4; ref [b]; cited from earlier work.
The conditions of data set [9]: Competition with alizarin red S; 0.10M sodium phosphate buffer, pH 7.4; ref [b]; cited from earlier work. This is another data set of the same source.
For data set [10] the following is noted: 11B NMR in H2O/D2O/MeOH mixture; ref [d]; cited from earlier work.

For the compound `OCc1ccccc1B(O)O` [Benzoboroxole, 2-hydroxymethylphenylboronic acid], the results for the “Ka for D-fructose” value in data set [1], in [1] (listed as benzoxaborole) and in data set [6] were 336 ± 43 M⁻¹, 336 M⁻¹ and 606 M⁻¹, respectively. Also, the “Ka for D-glucose” value was 17 M⁻¹ in [2], 31 M⁻¹ in [3] and 28 ± 4 M⁻¹ in data set [5]. Besides, the “pKa of the HOB” value in [4] was 7.2. Also, the “Ka for Neu5Ac” value in data set [7] came out at 43 ± 5 M⁻¹.
As to `OB(O)c1ccccc1` [PBA, Phenylboronic acid], the “Ka for D-fructose” value in data set [1] was 128 ± 20 M⁻¹; in [8], 160 M⁻¹; in [6], 79 M⁻¹. In addition, the figures for the “Ka for D-glucose” value in [2], in data set [3] and in [5] were 0 M⁻¹, 4.6 M⁻¹ and 5 ± 1 M⁻¹, respectively. The “Ka for Neu5Ac” value in [7] was 13 ± 1 M⁻¹; in [9] it was 21 M⁻¹; in data set [10] it was 11.6 ± 1.9 M⁻¹.
